One series concerns IAV. The experiment in a line: microbe, parasite or virus in culture. Particulars: for EC50: Influenza A virus, RPE. It counts as cell-based, Human influenza A/Udorn/307/1972 (H3N2).
On the set-up of series [1]: method as in earlier work. Particulars: cited from earlier work.
A further series can be described thus: in vitro. Particulars: human.
For series [2], the system named is IAV-infected RPE and A549 cells. It counts as cell-based, human.
The next series relates to mock-infected RPE cells. Conditions: human.
The test system of series [3] is IAV-infected RPE cells. It counts as cell-based, human.
For series [4], the system named is vRNA-transfected RPE cells. It counts as cell-based, human.
In series [5] the test system is IAV-infected RPE cells. It counts as cell-based, human. The source holds these as a separate data set.
For the next series, the system named is MERS-CoV. It counts as cell-based. Conditions: Vero cells, 24 hpi, moi 0.1.
The test system of series [6] is RPE or A549 cells treated with bacterial lipopolysaccharides (LPS). The experiment in a line: Death of cells treated with bacterial LPS. It counts as cell-based, human. Particulars: LPS 10 µg/ml.

One may read the EC50 as the concentration needed to bring the measured effect to its halfway point. With `CN(C)CC#Cc1ccc(OCCCc2sc(N3CCc4cccc(C(=O)Nc5nc6ccccc6s5)c4C3)nc2C(=O)O)c(F)c1` [A-1155463], in the series with IAV, the “effect on viral replication” value is listed as “limited viral replication” and the EC50 was less than 10 nM. Also, the “side effect in animals” value in series [1] was “reversible thrombocytopenia”. In the series “in vitro”, this compound yielded a CC50 of 60 nM.

As for `C[C@H]1C/C=C/Cc2cccc(O)c2C(=O)O[C@@H](C/C=C/NC(=O)C#Cc2ccccc2)C[C@H]1O` [SaliPhe, Saliphenylhalamide], the “rescue from ABT-263-mediated premature death” value (from here on “rescue”) in [2] was “rescued”.

Regarding `Nc1ccn([C@@H]2O[C@H](CO)[C@@H](O)C2(F)F)c(=O)n1` [gemcitabine], the “rescue” value in series [2] is “rescued”.

`Cc1c(-c2ccc(N3CCc4cccc(C(=O)Nc5nc6ccccc6s5)c4C3)nc2C(=O)O)cnn1CC12CC3CC(CC(C3)C1)C2` [A-1331852]: in the series with IAV, the “effect on viral replication” value was “limited viral replication” and the EC50 is less than 10 nM. Moreover, the CC50 in “in vitro” worked out at 50 nM.

`O=C(O)[C@H]1C2CCC(CC2)[C@@H]1Nc1nc(-c2c[nH]c3ncc(F)cc23)ncc1F` [JNJ-872]: in series [2], the “rescue” value is reported as “rescued”.

Regarding `CC1(C)CCC(c2ccc(Cl)cc2)=C(CN2CCN(c3ccc(C(=O)NS(=O)(=O)c4ccc(N[C@H](CCN5CCOCC5)CSc5ccccc5)c(S(=O)(=O)C(F)(F)F)c4)cc3)CC2)C1` [ABT-263], the “time without toxicity in mock-infected cells” value with mock-infected RPE cells is “at least 36 h”. For the same compound, in the series with IAV-infected RPE cells [3], the “time post infection at which premature death of infected cells was observed” value is not above 12 h and the “ΔAUC CTG” value was determined as 9.9. In addition, the “death of vRNA-transfected cells” value in series [4] was “kills vRNA-transfected (160 ng) but not mock-transfected RPE cells”. Besides, the “ΔAUC CTxG” value with IAV-infected RPE cells [5] worked out at 2.5. In the series on IAV, the PFU/ml is 0.01x10^6 PFU/ml, the “Virus titer FC (log10)” value came to 2.0±0.2 log10, the “effect on viral replication” value was “limited viral replication” and the EC50 came out at 80 nM. Also, the “effect on MERS-CoV replication” value in the series with MERS-CoV was “blocks MERS-CoV replication”. Further, the CC50 in the series “in vitro” was determined as 800 nM. For the same compound, the “death of LPS-treated cells” value in series [6] is “did not accelerate the death”.

On to `COC1=CC(c2cc3ccccc3[nH]2)=N/C1=C\c1[nH]c(C)cc1C` [Obatoclax, obatoclax], for which the “rescue” value in [2] is reported as “rescued”.

For `CN(C)CC[C@H](CSc1ccccc1)Nc1ccc(S(=O)(=O)NC(=O)c2ccc(N3CCN(Cc4ccccc4-c4ccc(Cl)cc4)CC3)cc2)cc1[N+](=O)[O-]` [ABT-737], in the series on IAV, the “effect on viral replication” value is on record as “limited viral replication” and the response was half-maximal at 280 nM (EC50). For the same compound, in the series “in vitro”, the CC50 turned out to be 350 nM.

In the series on IAV, `CC1(C)CCC(CN2CCN(c3ccc(C(=O)NS(=O)(=O)c4ccc(NCC5CCOCC5)c([N+](=O)[O-])c4)c(Oc4cnc5[nH]ccc5c4)c3)CC2)=C(c2ccc(Cl)cc2)C1` [ABT-199] had an EC50 of 3710 nM. Moreover, in the series “in vitro”, the CC50 amounted to 4640 nM.

The record behind these values is publication PMC5691623 (Viruses, 2017).
